Source: PubChem BioAssay AID330 (DTP/NCI, 2004)
“And” between values parts separate entries of the source, which are not always exact repeats. Equal values may be shown once. Toxic doses and inconclusive results are not listed.

Tested on: P388 leukemia ip, CD2F1 mice, survival T/C
Experiment: NCI In Vivo Anticancer Drug Screen. Data for tumor model P388 Leukemia (intraperitoneal) in CD2F1 (CDF1) mice
Details: endpoint: median survival time, higher = longer survival
Summary of the method: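 Mice carrying the transplanted tumor received test compound or vehicle. Survival was recorded in each group, and the value is the treated-group measurement divided by that of the vehicle-treated control group.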

[1] = dose: 12.5 mg/kg/injection, schedule: Q01DX009 (ip), vehicle: saline with Tween-80
[2] = dose: 25.0 mg/kg/injection, schedule: Q01DX009 (ip), vehicle: saline with Tween-80
[3] = dose: 50.0 mg/kg/injection, schedule: Q01DX009 (ip), vehicle: saline with Tween-80
[4] = dose: 50.0 mg/kg/injection, schedule: Q01DX005 (ip), vehicle: Klucel (hydroxypropylcellulose) (HPC)
[5] = dose: 100.0 mg/kg/injection, schedule: Q01DX005 (ip), vehicle: Klucel (hydroxypropylcellulose) (HPC)
[6] = dose: 200.0 mg/kg/injection, schedule: Q01DX005 (ip), vehicle: Klucel (hydroxypropylcellulose) (HPC)
[7] = dose: 100.0 mg/kg/injection, schedule: Q04DX003 (ip), vehicle: saline with Tween-80
[8] = dose: 200.0 mg/kg/injection, schedule: Q04DX003 (ip), vehicle: saline with Tween-80
[9] = dose: 60.0 mg/kg/injection, schedule: Q01DX005 (ip), vehicle: saline with Tween-80
[10] = dose: 120.0 mg/kg/injection, schedule: Q01DX005 (ip), vehicle: saline with Tween-80
[11] = dose: 240.0 mg/kg/injection, schedule: Q01DX005 (ip), vehicle: saline with Tween-80
[12] = dose: 60.0 mg/kg/injection, schedule: Q01DX005 (ip), vehicle: Klucel (hydroxypropylcellulose) (HPC)
[13] = dose: 120.0 mg/kg/injection, schedule: Q01DX005 (ip), vehicle: Klucel (hydroxypropylcellulose) (HPC)
[14] = dose: 12.5 mg/kg/injection, schedule: Q01DX005 (ip), vehicle: saline with Tween-80
[15] = dose: 25.0 mg/kg/injection, schedule: Q01DX005 (ip), vehicle: saline with Tween-80
[16] = dose: 50.0 mg/kg/injection, schedule: Q01DX005 (ip), vehicle: saline with Tween-80
[17] = dose: 100.0 mg/kg/injection, schedule: Q01DX005 (ip), vehicle: saline with Tween-80
[18] = dose: 200.0 mg/kg/injection, schedule: Q01DX005 (ip), vehicle: saline with Tween-80

Q: How did the T/C (dose: 6.25 mg/kg/injection, schedule: Q04DX003 (ip), vehicle: other) turn out when `O=C(C=C(C(F)(F)F)C(F)(F)F)c1ccc(F)cc1` was run?
A: 109 % of control

Q: And the T/C (dose: 12.5 mg/kg/injection, schedule: Q04DX003 (ip), vehicle: other)?
A: 104 % of control

Q: And the T/C (dose: 16.5 mg/kg/injection, schedule: Q01DX009 (ip), vehicle: saline + alcohol)?
A: 110 % of control

Q: What about the T/C (dose: 25.0 mg/kg/injection, schedule: Q01DX009 (ip), vehicle: saline + alcohol) of the same compound?
A: 106 % of control

Q: What about the T/C (dose: 25.0 mg/kg/injection, schedule: Q04DX003 (ip), vehicle: other) of the same compound?
A: 118 % of control

Q: What about the T/C (dose: 37.5 mg/kg/injection, schedule: Q01DX009 (ip), vehicle: saline + alcohol) of the same compound?
A: 109 % of control

Q: What does the source list for `S=C(N/N=C1\CSCc2ccccc21)Nc1cc(Cl)ccc1Cl`?
A: T/C [1]: 87 % of control; T/C [2]: 90 % of control; T/C [3]: 100 % of control

Q: With `Nc1cc(Cl)cc2c1-c1ccc(Cl)cc1C2` as the compound, how does the T/C [4] read?
A: 93 % of control

Q: And the T/C [5]?
A: 93 % of control

Q: And the T/C [6]?
A: 94 % of control

Q: For `O=P(N1CC=CCC1)(N1CC1)N1CC1`, which T/C (dose: 4.4 mg/kg/injection, schedule: Q04DX003 (ip), vehicle: saline) is on record?
A: 118 % of control

Q: What about the T/C (dose: 5.56 mg/kg/injection, schedule: Q01DX009 (ip), vehicle: saline) of the same compound?
A: 154 % of control

Q: And the T/C (dose: 6.6 mg/kg/injection, schedule: Q04DX003 (ip), vehicle: saline)?
A: 113 % of control

Q: And the T/C (dose: 8.33 mg/kg/injection, schedule: Q01DX009 (ip), vehicle: saline)?
A: 209 % of control

Q: What about the T/C (dose: 10.0 mg/kg/injection, schedule: Q04DX003 (ip), vehicle: saline) of the same compound?
A: 118 % of control

Q: What does the source list for `COc1cccc2c1C(=N)c1c(O)c3c(c(O)c1C2=O)CC(O)(C(C)=O)CC3OC1CC(N(Cc2ccccc2)Cc2ccccc2)C(O)C(C)O1` (stereo unspecified)?
A: T/C (dose: 4.69 mg/kg/injection, schedule: Q04DX003 (ip), vehicle: distilled water + Tween-80): 101 % of control; T/C (dose: 9.38 mg/kg/injection, schedule: Q04DX003 (ip), vehicle: distilled water + Tween-80): 102 % of control; T/C (dose: 18.75 mg/kg/injection, schedule: Q04DX003 (ip), vehicle: distilled water + Tween-80): 100 % of control; T/C (dose: 37.5 mg/kg/injection, schedule: Q04DX003 (ip), vehicle: distilled water + Tween-80): 96 % of control; T/C (dose: 75.0 mg/kg/injection, schedule: Q04DX003 (ip), vehicle: distilled water + Tween-80): 101 % of control; T/C (dose: 150.0 mg/kg/injection, schedule: Q04DX003 (ip), vehicle: distilled water + Tween-80): 108 % of control

Q: With `COc1cc(C#N)cc(OC)c1` as the compound, how does the T/C (dose: 25.0 mg/kg/injection, schedule: Q04DX003 (ip), vehicle: saline with Tween-80) read?
A: 109 % of control

Q: And the T/C (dose: 50.0 mg/kg/injection, schedule: Q04DX003 (ip), vehicle: saline with Tween-80)?
A: 100 % of control

Q: What about the T/C [7] of the same compound?
A: 100 % of control

Q: And the T/C [8]?
A: 100 % of control

Q: For `CN1c2ccccc2SC12C(=S)N(c1ccccc1)C(=S)N2c1ccccc1` (stereo unspecified), which T/C (dose: 100.0 mg/kg/injection, schedule: Q04DX002 (ip), vehicle: saline with Tween-80) is on record?
A: 98 % of control

Q: What about the T/C (dose: 200.0 mg/kg/injection, schedule: Q04DX002 (ip), vehicle: saline with Tween-80) of the same compound?
A: 90 % of control

Q: And the T/C (dose: 400.0 mg/kg/injection, schedule: Q04DX002 (ip), vehicle: saline with Tween-80)?
A: 86 % of control

Q: With `COc1ccc(OC)c(NC(=O)OCc2ccc3c(c2)OCO3)c1` as the compound, how does the T/C [9] read?
A: 98 % of control

Q: What about the T/C [10] of the same compound?
A: 95 % of control

Q: And the T/C [11]?
A: 93 % of control

Q: Which T/C [9] does the source give for `O=C(c1ccccc1)N1OCCc2ccccc21` here?
A: 100 % of control

Q: And the T/C [10]?
A: 104 % of control

Q: And the T/C [11]?
A: 96 % of control

Q: Which results are given for `COC(=O)C1=C(C)NC(=O)NC1c1ccc(N(CCCl)CCCl)c(OC)c1` (stereo unspecified)?
A: T/C (dose: 1.56 mg/kg/injection, schedule: Q01DX009 (ip), vehicle: saline with Tween-80): 160 % of control; T/C (dose: 3.13 mg/kg/injection, schedule: Q01DX009 (ip), vehicle: saline with Tween-80): 186 % of control; T/C (dose: 6.25 mg/kg/injection, schedule: Q01DX009 (ip), vehicle: saline with Tween-80): 117 % of control; T/C [1]: 96 % of control

Q: What does the source list for `COC(=O)C1CC(C(=O)OC)c2nc3ccccc3nc21` (stereo unspecified)?
A: T/C [12]: 100 % of control; T/C [13]: 98 % of control

Q: How did the T/C (dose: 100.0 mg/kg/injection, schedule: Q04DX002 (ip), vehicle: suspension in saline) turn out when `CC(C)(C)OC(=O)N/C=C/c1ccccc1` was run?
A: 101 % of control

Q: What about the T/C (dose: 200.0 mg/kg/injection, schedule: Q04DX002 (ip), vehicle: suspension in saline) of the same compound?
A: 92 % of control

Q: What about the T/C (dose: 400.0 mg/kg/injection, schedule: Q04DX002 (ip), vehicle: suspension in saline) of the same compound?
A: 94 % of control

Q: Which results are given for `Brc1ccc(-c2cnc3nc4[nH]c5ccccc5c4nn23)cc1`?
A: T/C [14]: 101 % of control; T/C [15]: 93 % of control; T/C [16]: 89 % of control and 91 % of control

Q: Which results are given for `CC(C)C1SCCS1`?
A: T/C (dose: 50.0 mg/kg/injection, schedule: Q01DX001 (ip), vehicle: saline with Tween-80): 102 % of control; T/C (dose: 100.0 mg/kg/injection, schedule: Q01DX001 (ip), vehicle: saline with Tween-80): 106 % of control; T/C (dose: 200.0 mg/kg/injection, schedule: Q01DX001 (ip), vehicle: saline with Tween-80): 99 % of control

Q: What does the source list for `Nc1ncnc2c1ccn2CC(O)CO` (stereo unspecified)?
A: T/C (dose: 50.0 mg/kg/injection, schedule: Q01DX005 (ip), vehicle: distilled water + alcohol): 101 % of control; T/C (dose: 100.0 mg/kg/injection, schedule: Q01DX005 (ip), vehicle: distilled water + alcohol): 100 % of control; T/C (dose: 200.0 mg/kg/injection, schedule: Q01DX005 (ip), vehicle: distilled water + alcohol): 101 % of control

Q: Which T/C (dose: 50.0 mg/kg/injection, schedule: Q01DX009 (ip), vehicle: saline) does the source give for `C=C1SC(=Nc2ccc(Cl)cc2)N(c2nc(Cl)nc(Cl)n2)C12CCCCC2` here?
A: 98 % of control

Q: What about the T/C (dose: 100.0 mg/kg/injection, schedule: Q01DX009 (ip), vehicle: saline) of the same compound?
A: 90 % of control

Q: What about the T/C (dose: 200.0 mg/kg/injection, schedule: Q01DX009 (ip), vehicle: saline) of the same compound?
A: 89 % of control

Q: Which T/C [7] does the source give for `CCNNC(=O)[C@@H]1[C@H](c2cc(OC)c(OC)c(OC)c2)c2cc3c(cc2[C@H](O)[C@H]1CO)OCO3` here?
A: 109 % of control

Q: What about the T/C [8] of the same compound?
A: 113 % of control

Q: And the T/C (dose: 400.0 mg/kg/injection, schedule: Q04DX003 (ip), vehicle: saline with Tween-80)?
A: 104 % of control

Q: `COc1cc(/C=N/N2CC(=O)N(c3ccccc3)CC2=O)cc(OC)c1` was tested. Which T/C (dose: 6.25 mg/kg/injection, schedule: Q01DX005 (ip), vehicle: saline with Tween-80) did it give?
A: 97 % of control

Q: What about the T/C [14] of the same compound?
A: 100 % of control

Q: And the T/C [15]?
A: 100 % of control

Q: What does the source list for `COC(=O)C1C(CO)ON2CCC(OC)(OC)C12` (stereo unspecified)?
A: T/C (dose: 50.0 mg/kg/injection, schedule: Q01DX005 (ip), vehicle: saline): 99 % of control; T/C (dose: 100.0 mg/kg/injection, schedule: Q01DX005 (ip), vehicle: saline): 92 % of control; T/C (dose: 200.0 mg/kg/injection, schedule: Q01DX005 (ip), vehicle: saline): 96 % of control

Q: What does the source list for `COC(=O)C1C(O)CCC2CN3CCc4c([nH]c5cccc(OC)c45)C3CC21` (stereo unspecified)?
A: T/C (dose: 25.0 mg/kg/injection, schedule: Q01DX005 (ip), vehicle: Klucel (hydroxypropylcellulose) (HPC)): 104 % of control; T/C [4]: 105 % of control; T/C [5]: 104 % of control; T/C [6]: 101 % of control

Q: For `Nc1ccc(C(=O)Oc2ccc([N+](=O)[O-])cc2)cc1`, which T/C [7] is on record?
A: 95 % of control

Q: And the T/C [8]?
A: 90 % of control

Q: How did the T/C [12] turn out when `CCOC(=O)NC(=N/C(=C/c1cccc(C)n1)c1ccccc1)c1ccccc1` was run?
A: 93 % of control

Q: And the T/C [13]?
A: 91 % of control

Q: Which T/C [16] does the source give for `C/C(=N\Nc1cccc2ccccc12)c1ccccn1` here?
A: 111 % of control

Q: And the T/C [17]?
A: 103 % of control

Q: What about the T/C [18] of the same compound?
A: 98 % of control

Q: `N#Cc1ccc(N(O)C(=O)c2ccccc2)cc1` was tested. Which T/C [1] did it give?
A: 99 % of control

Q: And the T/C [2]?
A: 100 % of control

Q: And the T/C [3]?
A: 99 % of control and 100 % of control

Q: What does the source list for `CC(=O)Nc1ccc2oc3ccc(Cl)cc3c(=O)c2c1`?
A: T/C [4]: 98 % of control; T/C [5]: 92 % of control; T/C [6]: 91 % of control

Q: With `O=C(CN(Cc1ccccc1)Cc1ccccc1)C(O)C1OC(c2ccccc2)OCC1O` (stereo unspecified) as the compound, how does the T/C [16] read?
A: 91 % of control

Q: And the T/C [17]?
A: 88 % of control

Q: What about the T/C [18] of the same compound?
A: 89 % of control
